In patent US9274101B2 (BIOLOG, Inc., priority 2001, dated 2016):
Where a SMILES comes first, the peptide text is derived from it.

How the values were obtained:
E. coli MG1655 = format: cell-based, Escherichia coli
HepG2 cells = HepG2 cells cultured on CYTODEX 3 microcarriers, energy sources; format: cell-based, human; conditions: for activity at 30 µM / activity at 100 µM / activity at 330 µM / activity at 1000 µM / activity at 3300 µM / activity at 10000 µM / activity at 15000 µM / activity at 20000 µM: Homo sapiens, HepG2, 68 h, read-out: Responses of HepG2 Cells Cultured on Microcarriers After 68 hours in Culture and a 4 hour Color Development Period
Description: In this Example, methods for testing adherent cells cultured in suspension, for their ability to use multiple carbon sources are described. HepG2 cells were cultured as described in Example 30.
HepG2 cells were harvested by trypsinization for 3 minutes in 0.25% trypsin-1 mM EDTA and resuspended in an equal volume of culture medium. A viable cell count was obtained by trypan blue exclusion and the appropriate volume of the cell suspension to have 2.7×10^6 cells/0.1 gm CYTODEX 3 (Sigma C3275) microcarrier beads was determined. Microcarrier beads had been previously prepared by 1) rehydration in calcium-magnesium free (CMF) DPBS for 3 hours, 2) autoclaving for 15 minutes, and 3) washing twice in MEM without serum. The cell suspension was added to the beads in a 50 mL tube, and the volume adjusted to 5 mL. Cells were allowed to attach for 1 hour in an atmosphere of 5% CO2, 90-100% humidity, and 37° C., with resuspension every 15 minutes. The microcarriers were transferred to a 100×15 mm Petri dish in a total volume of 20 mL. Cultures were maintained as stationary cultures until used for assay.
The thixotropic suspending agent, methylcellulose (1500 cps, Sigma M0555), was included in the medium to keep the microcarriers suspended so that they could be accurately pipetted. The methylcellulose was prepared by autoclaving in 20 mL tissue culture water for 30 minutes, then mixing by shaking for 1 hour. The initial concentration of methylcellulose was […]. The methylcellulose was then diluted 1:1 in 2× DME with or without glucose, then supplemented with 10% HI FBS; this yields a methylcellulose concentration of 1.36%. Beads were transferred to a 50 mL tube, allowed to settle and resuspended in DPBS. The washed beads were then resuspended in DME with 10% HI FBS and penicillin-streptomycin but without glucose, L-glutamine, sodium pyruvate, or phenol red. An equal volume of 1.36% methylcellulose was added and mixed by pipetting.
For the assay, 70 μL of DME with 10% HI FBS and penicillin-streptomycin but without glucose, L-glutamine, sodium pyruvate, or phenol red were added to each well, followed by 30 μL of the appropriate dilution of each test energy source. Stocks of 133 mM of each test chemical were prepared in tissue culture grade water, sterile filtered, and dilutions were prepared in a master plate so that, upon dilution into a regular 96-well MICROPLATE a total well volume of 200 μL, the final concentrations would be 0.033 to 20 mM. Negative control wells received 30 μL of tissue culture grade water. One hundred μL of beads were pipetted into each well. For each plate containing energy sources and cells, a second, control plate containing only energy sources was prepared. Plates were incubated at 5% CO2, 90-100% humidity, and 37° C. for 68 hours prior to addition of the MTS/MPMS colorometric reagent (10 μL/well). The color formed in each well 4-8 hours after addition of the colorimetric reagent, was measured with a plate reader at 490 nm with a reference wavelength of 650 nm. OD values from the control plate were subtracted from the OD values obtained with cells prior to normalizing the data to % negative control (cells without added energy source).

ten strains of E. coli = format: cell-based, Escherichia coli

| SMILES | suitability as nitrogen source (growth, purple color) (E. coli MG1655) | also measured |
| --- | --- | --- |
| CCCCCCC(N)C(=O)O (racemic) [DL-α-amino-caprylic acid] | not suitable |  |
| CCC(N)C(=O)O (racemic) [DL-α-amino-n-butyric acid] | not suitable |  |
| CCCC(N)C(=O)O (stereo not shown) [2-amino-valeric acid] | not suitable |  |
| C[C@@H](N)c1ccccc1 [(R)-(+)-α-phenylethylamine] | not suitable |  |
| N[C@H]1C(O)O[C@H](CO)[C@H](O)[C@@H]1O (stereo partly drawn) [D(+)-galactosamine] | weak positive |  |
| N[C@H]1C(O)O[C@H](CO)[C@@H](O)[C@@H]1O (stereo partly drawn) [D(+)-glucosamine] | positive |  |
| NC(=O)C[C@@H](N)C(=O)O [D-asparagine] | not suitable |  |
| N[C@H](CCC(=O)O)C(=O)O [D-glutamic acid] | not suitable |  |
| NCCCC[C@@H](N)C(=O)O [D-lysine] | not suitable |  |
| N[C@@H]1C(O)O[C@H](CO)[C@@H](O)[C@@H]1O (stereo partly drawn) [D-mannosamine] | weak positive |  |
| CC(C)[C@@H](N)C(=O)O [D-valine] | not suitable |  |
| NC(=O)NCCC[C@H](N)C(=O)O [L-citrulline] | not suitable |  |
| CC[C@H](C)[C@H](N)C(=O)O [L-isoleucine] | not suitable |  |
| CC(C)C[C@H](N)C(=O)O [L-leucine] | not suitable |  |
| NCCCC[C@H](N)C(=O)O [L-lysine] | not suitable |  |
| N[C@@H](Cc1ccc(O)cc1)C(=O)O [L-tyrosine] | not suitable |  |
| CC(=O)N[C@H]1C(O)O[C@H](CO)[C@H](O)[C@@H]1O (stereo partly drawn) [N-acetyl-D-galactosamine] | not suitable |  |
| CC(=O)NCC(=O)O [N-acetyl-glycine] | not suitable |  |
| OC[C@H]1O[C@@](CO)(O[C@H]2O[C@H](CO)[C@@H](O)[C@H](O)[C@H]2O)[C@@H](O)[C@@H]1O [Sucrose] |  | activity at 30 µM (HepG2 cells; Conc. 0.03 mM): 90.2%; activity at 100 µM (HepG2 cells; Conc. 0.10 mM): 109%; activity at 330 µM (HepG2 cells; Conc. 0.33 mM): 98.6%; activity at 1000 µM (HepG2 cells; Conc. 1.00 mM): 95.2%; activity at 3300 µM (HepG2 cells; Conc. 3.3 mM): 94%; activity at 10000 µM (HepG2 cells; Conc. 10 mM): 83.3%; activity at 15000 µM (HepG2 cells; Conc. 15 mM): 66.8%; activity at 20000 µM (HepG2 cells; Conc. 20 mM): 59.5%; carbon source utilization (ten strains of E. coli): + and −; carbon source utilization (text) (ten strains of E. coli): three of the four strains were positive |
| CC(N)=O [acetamide] | not suitable |  |
| Nc1ncnc2nc[nH]c12 [adenine] | not suitable |  |
| N=C(N)NCCCCN [agmatine] | not suitable |  |
| C[C@H](N)C(=O)N[C@@H](Cc1cnc[nH]1)C(=O)O [ala-his] (H-Ala-His-OH) | not suitable |  |
| C[C@H](N)C(=O)N[C@H](C(=O)O)[C@@H](C)O [ala-thr] (H-Ala-Thr-OH) | positive |  |

| SMILES | suitability as nitrogen source (growth, purple color) (E. coli MG1655) | also measured |
| --- | --- | --- |
| O=C1NC(=O)C(=O)C(=O)N1 [alloxan] | not suitable |  |
| CCN [ethylamine] | not suitable |  |
| NCCN [ethylenediamine] | not suitable |  |
| NC=O [formamide] | not suitable |  |
| O=C(CO)[C@@H](O)[C@H](O)[C@H](O)CO [fructose] |  | activity at 30 µM (HepG2 cells; Conc. 0.03 mM): 97.1%; activity at 100 µM (HepG2 cells; Conc. 0.10 mM): 108%; activity at 330 µM (HepG2 cells; Conc. 0.33 mM): 123%; activity at 1000 µM (HepG2 cells; Conc. 1.00 mM): 115%; activity at 3300 µM (HepG2 cells; Conc. 3.3 mM): 107%; activity at 10000 µM (HepG2 cells; Conc. 10 mM): 94.4%; activity at 15000 µM (HepG2 cells; Conc. 15 mM): 72.1%; activity at 20000 µM (HepG2 cells; Conc. 20 mM): 50.3% |
| O=C[C@H](O)[C@@H](O)[C@@H](O)[C@H](O)CO [galactose] |  | activity at 30 µM (HepG2 cells; Conc. 0.03 mM): 97.1%; activity at 100 µM (HepG2 cells; Conc. 0.10 mM): 111%; activity at 330 µM (HepG2 cells; Conc. 0.33 mM): 121%; activity at 1000 µM (HepG2 cells; Conc. 1.00 mM): 109%; activity at 3300 µM (HepG2 cells; Conc. 3.3 mM): 117%; activity at 10000 µM (HepG2 cells; Conc. 10 mM): 94.4%; activity at 15000 µM (HepG2 cells; Conc. 15 mM): 81%; activity at 20000 µM (HepG2 cells; Conc. 20 mM): 65.6% |
| C[C@H](NC(=O)CN)C(=O)O [gly-ala] (H-Gly-Ala-OH) | positive |  |
| NCC(=O)N[C@@H](CC(N)=O)C(=O)O [gly-asn] (H-Gly-Asn-OH) | positive |  |
| NCC(=O)N[C@@H](CCC(N)=O)C(=O)O [gly-gln] (H-Gly-Gln-OH) | positive |  |
| CSCC[C@H](NC(=O)CN)C(=O)O [gly-met] | positive |  |
| NCC(=O)O [glycine] | positive |  |
| O=C(O)CNC(=O)c1ccccc1 [hippuric acid] | not suitable |  |
| NCCc1c[nH]cn1 [histamine] | not suitable |  |
| CC(O)C(N)=O (stereo not shown) [lactamide] | not suitable |  |
| CSCC[C@H](N)C(=O)N[C@@H](C)C(=O)O [met-ala] (H-Met-Ala-OH) | not suitable |  |
| CC(CC(=O)O)C(=O)O (stereo not shown) [methyl succinate] |  | Responses of HepG2 Cells Cultured on Microcarriers After 68 hours in Culture and a 4 hour Color Development Period (HepG2 cells; Conc. 0.03 mM): 90.6 % of negative control; Responses of HepG2 Cells Cultured on Microcarriers After 68 hours in Culture and a 4 hour Color Development Period (HepG2 cells; Conc. 0.10 mM): 83.3 % of negative control; Responses of HepG2 Cells Cultured on Microcarriers After 68 hours in Culture and a 4 hour Color Development Period (HepG2 cells; Conc. 0.33 mM): 98.6 % of negative control; Responses of HepG2 Cells Cultured on Microcarriers After 68 hours in Culture and a 4 hour Color Development Period (HepG2 cells; Conc. 1.00 mM): 107.5 % of negative control; Responses of HepG2 Cells Cultured on Microcarriers After 68 hours in Culture and a 4 hour Color Development Period (HepG2 cells; Conc. 3.3 mM): 124.3 % of negative control; Responses of HepG2 Cells Cultured on Microcarriers After 68 hours in Culture and a 4 hour Color Development Period (HepG2 cells; Conc. 10 mM): 162.7 % of negative control; Responses of HepG2 Cells Cultured on Microcarriers After 68 hours in Culture and a 4 hour Color Development Period (HepG2 cells; Conc. 15 mM): 181.5 % of negative control; Responses of HepG2 Cells Cultured on Microcarriers After 68 hours in Culture and a 4 hour Color Development Period (HepG2 cells; Conc. 20 mM): 112.4 % of negative control |
| O[C@H]1[C@H](O)[C@@H](O)[C@H](O)[C@@H](O)[C@H]1O [myoinositol] |  | activity at 30 µM (HepG2 cells; Conc. 0.03 mM): 86.3%; activity at 100 µM (HepG2 cells; Conc. 0.10 mM): 110%; activity at 330 µM (HepG2 cells; Conc. 0.33 mM): 113%; activity at 1000 µM (HepG2 cells; Conc. 1.00 mM): 99.8%; activity at 3300 µM (HepG2 cells; Conc. 3.3 mM): 108%; activity at 10000 µM (HepG2 cells; Conc. 10 mM): 89%; activity at 15000 µM (HepG2 cells; Conc. 15 mM): 78.3%; activity at 20000 µM (HepG2 cells; Conc. 20 mM): 61.4% |
| CCCCCN [n-amylamine] | not suitable |  |
| CCCCN [n-butylamine] | not suitable |  |
| O=[N+]([O-])[O-].[K+] [potassium nitrate] | not suitable |  |
| NCCCCN [putrescine] | not suitable |  |
| O=NO [sodium nitrite] | not suitable |  |
| Cc1c[nH]c(=O)[nH]c1=O [thymine] | not suitable |  |
| NC(N)=O [urea] | not suitable |  |
